# Test system: patients suspected of having stunned or hibernating myocardium
# Test: Dobutamine echocardiography, regional wall motion during D-Ribose or placebo infusion (randomized, double-blind, crossover clinical trial)
# Format: in vivo
# Details: during low-dose dobutamine infusion (5μ/kg/minute); D-Ribose 10% in water iv at 180 mg/kg/hour; 25 patients, 16 left ventricular segments each
# Method: A single-center, randomized, double-blind placebo-controlled clinical trial was carried out to evaluate the safety and efficacy of D-Ribose on myocardial wall motion during echocardiographic examination in patients suspected of having stunned or hibernating myocardium. Patients were randomized into placebo and ribose groups according to a computer generated randomization schedule. The identity of the contents was blinded to the investigator. Patients were identified by initials. The selected study population was comprised of 25 patients (22 men and 3 women) with a mean age of 57+/−11 years. All had reduced left ventricular systolic function (mean ejection fraction 30+/−8%, range 18 to 48%). Twenty-two patients (88%) had prior myocardial infarction and only one subject was evaluated after recent (<4 weeks) infarction. […] Post-infusion images were recorded approximately eight minutes after discontinuation of dobutamine. […] Parasternal long and short-axis and apical two and four-chamber images were recorded on 0.5 inch videotape and digitally stored on floppy discs using a Nova MicroSonics DCR or Colorvue system (Mahwah, N.J.). […]
smiles,measurement,value
O=C[C@H](O)[C@H](O)[C@H](O)CO [D-Ribose],segments in which wall motion improved,65 segments

# Reference: US6339716B1, “Method for determining viability of a myocardial segment” (Bioenergy Inc., priority 1999, dated 2002)
